Experimental data taken from patent US5834010A, “Triacetin as a penetration enhancer for transdermal delivery of a basic drug” (priority 1997, dated 1998).
Like-named read-outs stand apart in the source and are kept apart here.

Key:
[1] = In vitro human cadaver skin flux of oxybutynin free base from adhesive matrix patches (modified Franz cells)
Description: In vitro human cadaver skin flux studies were conducted using modified Franz non-jacketed permeation cells. The temperature of the cells was maintained at 32° C. by placing the cells in a circulating water bath positioned over a stirring module. The epidermal membrane was separated from the human cadaver whole skin by the heat-separation method of Kligman & Christopher, 88 Arch. Dermatol. 702 (1963), hereby incorporated by reference, involving treating the full thickness skin at 60° C. for 60 seconds, after which time the stratum corneum and the epidermis (epidermal membrane) were gently peeled from the dermis.
For skin flux studies of matrix devices, the epidermal membrane was cut into rectangular strips, and the matrix device was cut into 0.96 cm^2 circular discs. The release liner was peeled from the disc, and the disc was laminated onto the stratum corneum surface of the epidermal membrane to form a skin-matrix laminate. The skin-matrix laminate was then loaded between the donor and receiver compartments of a diffusion cell with the epidermal side facing the receiver compartment. The laminate was clamped in place, and the receiver compartment was then filled with an appropriate receiving solution for a selected drug. The receiving solution was selected such that the drug was stable in the solution, the subsequent assay of the drug was not interfered with, and solubility of the drug was adequate to ensure sink conditions throughout the experiment. The diffusion cell was then placed in a circulating water bath calibrated to maintain the skin surface temperature at 32°±1° C. At predetermined sampling intervals, the entire contents of the receiver compartment were collected for drug quantitation, and the receiver compartment was filled with fresh receiving solution, taking care to eliminate any air bubbles at the skin/solution interface.
The cumulative amount of drug permeating through the epidermal membrane, Qt (μg/cm^2), at any time t was determined from the following formula: [formula] where Cn is the concentration (μg/ml) of the drug in the receiver sample for the corresponding sample time, V is the volume of fluid in the receiver chamber (~6.3 cm^3), and A is the diffusional area of the cell (0.64 cm^2). The slope of the best fit line to the plot of Qt vs. t gives the steady state flux (Jss, μg/cm^2 /hr); the intercept of this line on the time axis give the lag time (tL,h).
Matrix patches containing varying amounts of oxybutynin free base and penetration enhancers were prepared and tested as described above. The matrix systems consisted of 5 to 20% by weight of oxybutynin free base and 0 to 20% by weight of the enhancer contained in a medical grade acrylic copolymer adhesive.
The matrix formulations were prepared as follows. First, the solids content of the adhesive was determined by weighing a small amount of the adhesive solution in a preweighed aluminum dish. The solvent was evaporated by overnight drying in a convection oven maintained at 80° C. and the weight of the residue (dry adhesive) and percent solid adhesive content of the solution were determined. Once the solids content was determined, a known weight of the acrylic copolymer adhesive solution was weighed into a glass bottle. From the weight of the adhesive solution and the percent solid adhesive content, the amount of adhesive in the solution was calculated. Oxybutynin free base and enhancer were added to the bottle in proportions to yield the selected final composition. The bottle was then tightly capped, sealed with laboratory film, and rotated overnight until all ingredients had completely dissolved and the resultant solution was visually clear.
Approximately 8 ml of the solution was then dispensed on a silanized polyester release liner and cast with a 10 mil gap casting knife. The casting was then dried in a convection oven at 70° C. for 15 minutes to evaporate the solvent and to yield a dried film approximately 0.002 inch thick.

[2] = Enhancement of transdermal penetration, general statement; type: in vitro ADME
Excerpt: As used herein, the terms "enhancement", "penetration enhancement" or "permeation enhancement" mean an increase in the permeability of a biological membrane (i.e. skin or mucosa) to a drug, so as to increase the rate at which the drug permeates through the membrane. "Permeation enhancer," "enhancer," "penetration enhancer," or similar term means a material that achieves such permeation enhancement, and an "effective amount" of an enhancer means an amount effective to enhance penetration through the skin or mucosa of a selected agent to a selected degree. The enhanced permeation as effected though the use of such enhancers can be observed, for example, by measuring the rate of diffusion of the drug through animal or human skin using a diffusion cell apparatus. Such a diffusion cell is described by Merritt et al., Diffusion Apparatus for Skin Penetration, 1 J. of Controlled Release 61 (1984), incorporated herein by reference.

[3] = plaster with glycol and surfactant, WO9309783-A1; cited from earlier work
[4] = propylene glycol/linoleic acid enhancer system; cited from earlier work
[5] = isosorbide dinitrate, JP05148141-A; cited from earlier work
[6] = Allen, U.S. Pat. No. 4,895,727; cited from earlier work
[7] = In vitro human cadaver skin flux of oxybutynin free base from liquid reservoir gel formulations; type: in vitro ADME
Description: For skin flux studies of gel formulations (i.e., for liquid reservoir patch designs), the epidermal membrane was cut and placed between two halves of the permeation cell with the stratum corneum facing the donor compartment. The skin was allowed to hydrate at 32° C. overnight with 0.02% (w/v) sodium azide solution in the receiver compartment. The following morning, 75 μl of a gelled formulation was placed into a cavity created by placing a polytetrafluoroethylene washer over the stratum corneum surface. The cavity was then occluded by clamping an occlusive backing over the washer and gel. An appropriate receiving solution for a selected drug was placed in the receiver compartment in contact with the dermal side of the epidermis.
Liquid reservoir gel formulations containing oxybutynin free base and triacetin were tested as described above. Such liquid reservoir gel formulations were prepared in 10 ml quantities. Ethanol, water, glycerin, and triacetin were mixed in selected proportions in a capped vial. Then, 400 mg of oxybutynin free base was added to the vial, and the vial was capped and ultrasonicated to completely dissolve the drug. Next, 0.3 g of modified hydroxyethyl cellulose (NATROSOL PLUS 330CS, Aqualon, Wilmington, Del.) as a gelling agent was added to the mixture and the contents were mixed thoroughly and gently rotated overnight to completely dissolve the gelling agent.

Molecule: CN1CCCC1=O [N-methyl pyrrolidone, reference compound]
- exhibited the ability to increase transdermal skin flux of oxybutynin free base [1]: none of the well known penetration enhancers tested

Molecule: CCCCCCCC/C=C\CCCCCCCC(=O)OCC(O)CO (centres unmarked) [glycerol monooleate, reference compound]
- exhibited the ability to increase transdermal skin flux of oxybutynin free base ([1]; matrix system, TSR adhesive): none of the well known penetration enhancers tested

Molecule: CCCCCCCCCCCCCC(=O)OC(C)C [isopropyl myristate, reference compound]
- exhibited the ability to increase transdermal skin flux of oxybutynin free base ([1]; matrix system, TSR adhesive): none of the well known penetration enhancers tested

Molecule: CCCCCCCCCCCCO [lauryl alcohol, reference compound]
- exhibited the ability to increase transdermal skin flux of oxybutynin free base ([1]; matrix system, TSR adhesive): none of the well known penetration enhancers tested

Molecule: CC(=O)OCC(COC(C)=O)OC(C)=O [triacetin, glyceryl triacetate]
- effect on skin flux of oxybutynin free base [1]: significantly increases the skin flux of oxybutynin free base
- enhancing transdermal penetration of basic drugs ([2]; basic drugs, particularly pKa of about 8.0 or above, matrix patch): effective in enhancing transdermal penetration of basic drugs
- enhancing transdermal penetration of neutral or acidic drugs ([2]; neutral or acidic drugs): not of neutral or acidic drugs
- percutaneous absorption of piroxicam [3]: enhances percutaneous absorption of piroxicam
- flux of oxymorphone with increasing amounts of triacetin and decreasing linoleic acid [4]: decreasing flux
- lag time for permeation of oxymorphone with increasing amounts of triacetin and decreasing linoleic acid [4]: increasing lag time
- penetration enhancing effect of triacetin [5]: shown only in conjunction with a neutral, solvent-acting drug
- antifungal activity [6]: has activity as an antifungal agent
- penetration enhancement with liquid reservoir patches [7]: no penetration enhancement of basic drugs (including oxybutynin) or other drugs has been observed

Molecule: sorbitan monooleate [reference compound]
- exhibited the ability to increase transdermal skin flux of oxybutynin free base ([1]; matrix system, TSR adhesive): none of the well known penetration enhancers tested
